Results on one compound are retold here after patent publication US20220017516A1, “LOX INHIBITORS” (THE INSTITUTE OF CANCER RESEARCH: ROYAL CANCER HOSPITAL, priority 2018, published 2022).

What all share (format): in vivo, mice
Assay [1] deals with MDA-MB-231 human breast adenocarcinoma. The experiment in a line: MDA-MB-231 xenografts, primary tumour volume. As to conditions: T/C of average tumour volume; 200 mg/kg po qd; p<0.05. How it is done:
(§1) All procedures involving animals were approved by the Animal Welfare and Ethical Review Body of the Institute of Cancer Research and Cancer Research UK Manchester Institute in accordance with National Home Office regulations under the Animals (Scientific Procedures) Act 1986 and according to the guidelines of the Committee of the National Cancer Research Institute Tumour size was determined by caliper measurements of tumour length, width and depth and volume was calculated as volume=0.5236×length×width×depth (mm).
MDA-MB-231 xenografts. […] Tumours and weights are measured twice weekly using calipers and the animals can be imaged using non invasive method by bioluminescence using IVIS 200 imaging machine, weekly using 150 mg/kg luciferin administrate intraperitoneal or subcutaneous. […] Frozen samples kept at −80 degree centigrade until being analyzed and the fixed samples stained according to desired marker.
(§2) For therapeutic efficacy assessment, the ratio of average tumour volume between compound treated and vehicle control treated (T/C) is calculated. […] The efficacy of LOX inhibitors described in this invention, as measured by T/C in breast cancer models is shown in Table 4 and is significant (p<0.05) for all the data presented.

Assay [2] concerns MMTV-PyMT mammary tumours. The experiment in a line: MMTV-PyMT transgenic mouse breast cancer model, primary tumour volume. As to conditions: T/C of average tumour volume; 200 mg/kg po qd; p<0.05. Here is the method:
as §1
MMTV-PyMT (Guy et al, 1992) (FVB) female mice were randomized by non-statistical methods to LOX inhibitor treatment groups from day 70 post-birth, when animals had no detectable tumour. Mice were treated daily by oral gavage with LOX inhibitor in vehicle, or daily vehicle (5% DMSO/2.5% Tween20 in water) by oral gavage. Tumour size was determined unblinded by caliper measurements of tumour length, width and depth and volume was calculated as 0.5236×length×width×depth (mm). […]
as §2

For assay [3], the system named is MMTV-PyMT lung metastases. The experiment in a line: MMTV-PyMT transgenic mouse breast cancer model, lung metastases quantification. As to conditions: T/C of average lung metastases number; 200 mg/kg po qd; p<0.05. Here is the method: MMTV-PyMT (Guy et al, 1992) (FVB) female mice were randomized by non-statistical methods to LOX inhibitor treatment groups from day 70 post-birth, when animals had no detectable tumour. Mice were treated daily by oral gavage with LOX inhibitor in vehicle, or daily vehicle (5% DMSO/2.5% Tween20 in water) by oral gavage. Tumour size was determined unblinded by caliper measurements of tumour length, width and depth and volume was calculated as 0.5236×length×width×depth (mm). In all experiments, mice were humanely killed and mammary tumours and lungs were collected when the primary tumours reached ethical limits or signs of ill health.
For lung metastases quantification, all mouse tissue samples were fixed in 10% formalin (Sigma) and embedded in paraffin. Samples were sectioned and hematoxylin and eosin (H&E) stained. Samples were imaged with a Leica SCN400 slide scanner. […] Lung metastases number was counted and area was measured using ImageScope. […] The ratio of average metastases surface between compound treated and vehicle control treated (T/C) is calculated. The ratio of average metastases numbers between compound treated and vehicle control treated (T/C) is also calculated. […] The antimetastatic efficacy of LOX inhibitors described in this invention, as measured by T/C in a model of breast cancer metastasising to lungs is shown in Table 4 and is significant (p<0.05) for all the data presented.

For `CCOc1ccc(N2C[C@@H]3C[C@H]2CN3C(=O)CS(=O)(=O)CCN)cc1` [drawing 226], the “MDA-MB-231 human breast adenocarcinoma - primary tumour (T/C)” value in assay [1] was determined as 0.54. Also, the “MMT-PyMT breast transgenic model - primary tumour (T/C)” value in assay [2] was found to be 0.6. Besides, in assay [3], the “MMT-PyMT breast transgenic model - metastases a) Count (T/C)” value is recorded as “a) 0.14”.
